Source: ChEMBL document CHEMBL1146794, “Novel delta2-isoxazolines as group II phospholipase A2 inhibitors” (Bioorg Med Chem Lett, 2004)

Experiments:
[1] = Inhibitory activity against group II Phospholipase A2 (PLA2) from Vipera russelli russelli venom; design: species or system Daboia russelii russelii
[2] = Compound (2.5 uM) was tested for edema inducing activity of group II PLA2 (1 ug) was determined in mice footpads; format: functional, Daboia russelii russelii

Compound | IC50 [1] [nM] | Edema ratio [2]
C[C@H]1[C@H](C)CC[C@]2(C(=O)O)CC[C@]3(C)C(=CC[C@@H]4[C@@]5(C)CC[C@H](O)C(C)(C)[C@@H]5CC[C@]43C)[C@H]12 [URSOLIC ACID] | 2.5 | 102
CCCCc1nc(C2=NOC(C(=O)Oc3ccccc3)C2)c(Cl)[nH]1 (stereo unspecified) | 195 | 
CCCCc1nc(C2=NOC(CO)C2)c(Cl)[nH]1 (stereo unspecified) | 152 | 
CCCCc1nc(C2=NOC(C(=O)OCC)C2)c(Cl)[nH]1 (stereo unspecified) | 86.2 | 116
CCCCc1nc(C2=NOC(C#N)C2)c(Cl)[nH]1 (stereo unspecified) | 96.4 | 120
CCCCc1nc(C2=NOC(c3ccccc3)C2)c(Cl)[nH]1 (stereo unspecified) | 142 | 
CCCCc1nc(C2=NOC(C(=O)OC)C2)c(Cl)[nH]1 (stereo unspecified) | 250 | 
CCCCc1nc(C2=NOC(CC(=O)OC)C2)c(Cl)[nH]1 (stereo unspecified) | 209 | 
